Legend:
Assay in all cases: relative viability (nuclei count vs DMSO), 5 days (fraction); higher = more cells survive
MK-2206 + Phenformin = compound: NC1(c2ccc(-c3nc4ccn5c(=O)[nH]nc5c4cc3-c3ccccc3)cc2)CCC1 [MK-2206] + N=C(N)NC(=N)NCCc1ccccc1 [Phenformin] (partner 250 µM)
How it was run: (§1)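 Lung cancer cell lines in 1536-well plates got either a single drug or a fixed anchor-drug dose together with five library-drug doses (not always all listed) in √10 steps, by pin tool, on the day after seeding. Nuclei were counted after 5 days, and relative viability is the treated-to-vehicle ratio of nuclei counts. Values are medians of duplicate plates.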

Pictilisib + Dasatinib = compound: CS(=O)(=O)N1CCN(Cc2cc3nc(-c4cccc5[nH]ncc45)nc(N4CCOCC4)c3s2)CC1 [Pictilisib] + Cc1nc(Nc2ncc(C(=O)Nc3c(C)cccc3Cl)s2)cc(N2CCN(CCO)CC2)n1 [Dasatinib] (partner 0.075 µM)
How it was run: as §1

Pictilisib + OSI-027 = compound: CS(=O)(=O)N1CCN(Cc2cc3nc(-c4cccc5[nH]ncc45)nc(N4CCOCC4)c3s2)CC1 [Pictilisib] + COc1cccc2cc(-c3nc([C@H]4CC[C@H](C(=O)O)CC4)n4ncnc(N)c34)[nH]c12 [OSI-027] (partner 0.5 µM)
How it was run: as §1

MK-2206 + Trametinib = compound: NC1(c2ccc(-c3nc4ccn5c(=O)[nH]nc5c4cc3-c3ccccc3)cc2)CCC1 [MK-2206] + CC(=O)Nc1cccc(-n2c(=O)n(C3CC3)c(=O)c3c(Nc4ccc(I)cc4F)n(C)c(=O)c(C)c32)c1 [Trametinib] (partner 0.02 µM)
How it was run: as §1

Pictilisib + Decitabine = compound: CS(=O)(=O)N1CCN(Cc2cc3nc(-c4cccc5[nH]ncc45)nc(N4CCOCC4)c3s2)CC1 [Pictilisib] + Nc1ncn([C@H]2C[C@H](O)[C@@H](CO)O2)c(=O)n1 [Decitabine] (partner 2 µM)
How it was run: as §1

Row | Cell Line | relative viability (MK-2206 + Phenformin; first compound 0.01 µM) | relative viability (MK-2206 + Phenformin; first compound 0.03162 µM) | relative viability (MK-2206 + Phenformin; first compound 0.3162 µM) | relative viability (MK-2206 + Phenformin; first compound 1 µM) | relative viability (Pictilisib + Dasatinib; first compound 0.02 µM) | relative viability (Pictilisib + Dasatinib; first compound 0.06325 µM) | relative viability (Pictilisib + Dasatinib; first compound 0.6325 µM) | relative viability (Pictilisib + Dasatinib; first compound 2 µM) | relative viability (Pictilisib + OSI-027; first compound 0.02 µM) | relative viability (Pictilisib + OSI-027; first compound 0.06325 µM) | relative viability (Pictilisib + OSI-027; first compound 0.6325 µM) | relative viability (Pictilisib + OSI-027; first compound 2 µM) | relative viability (MK-2206 + Trametinib; first compound 0.01 µM) | relative viability (MK-2206 + Trametinib; first compound 0.03162 µM) | relative viability (MK-2206 + Trametinib; first compound 0.3162 µM) | relative viability (MK-2206 + Trametinib; first compound 1 µM) | relative viability (Pictilisib + Decitabine; first compound 0.02 µM) | relative viability (Pictilisib + Decitabine; first compound 0.06325 µM) | relative viability (Pictilisib + Decitabine; first compound 0.6325 µM) | relative viability (Pictilisib + Decitabine; first compound 2 µM)
1 | LCLC-97TM1 | 0.431 | 0.48 | 0.315 | 0.384 | 0.8 | 0.919 | 0.781 | 0.602 | 0.4 | 0.488 | 0.301 | 0.253 | 0.195 | 0.205 | 0.191 | 0.206 | 0.244 | 0.238 | 0.169 | 0.18
2 | EMC-BAC-2 | 0.526 | 0.546 | 0.475 | 0.431 | 0.317 | 0.324 | 0.247 | 0.199 | 0.378 | 0.364 | 0.26 | 0.245 | 0.863 | 0.799 | 0.78 | 0.673 | 0.967 | 0.978 | 0.838 | 0.653
3 | NCI-H441 | 0.974 | 0.865 | 0.656 | 0.449 | 0.639 | 0.528 | 0.352 | 0.256 | 0.486 | 0.552 | 0.38 | 0.307 | 0.532 | 0.447 | 0.28 | 0.333 | 0.263 | 0.234 | 0.265 | 0.281
4 | LCLC-103H | 0.304 | 0.321 | 0.351 | 0.314 | 0.457 | 0.547 | 0.367 | 0.142 | 0.494 | 0.438 | 0.287 | 0.262 | 0.691 | 0.635 | 0.666 | 0.659 | 0.705 | 0.77 | 0.55 | 0.617
5 | HOP-62 | 0.62 | 0.725 | 0.701 | 0.699 | 0.627 | 0.573 | 0.43 | 0.26 | 0.929 | 0.868 | 0.666 | 0.535 | 0.381 | 0.368 | 0.334 | 0.328 | 0.215 | 0.283 | 0.267 | 0.329
6 | NCI-H1793 | 0.386 | 0.47 | 0.206 | 0.218 | 0.361 | 0.39 | 0.351 | 0.243 | 0.255 | 0.236 | 0.185 | 0.149 | 0.4 | 0.433 | 0.298 | 0.391 | 0.436 | 0.518 | 0.343 | 0.239
7 | NCI-H1355 | 0.434 | 0.476 | 0.4 | 0.317 | 0.645 | 0.711 | 0.469 | 0.331 | 0.412 | 0.358 | 0.232 | 0.237 | 0.407 | 0.414 | 0.363 | 0.378 | 0.336 | 0.388 | 0.383 | 0.331
8 | COR-L23 | 0.417 | 0.452 | 0.422 | 0.459 | 0.445 | 0.481 | 0.384 | 0.295 | 0.767 | 0.809 | 0.732 | 0.372 | 0.547 | 0.558 | 0.522 | 0.476 | 0.443 | 0.474 | 0.402 | 0.372
9 | A-427 | 0.325 | 0.297 | 0.219 | 0.25 | 0.666 | 0.616 | 0.648 | 0.347 | 0.492 | 0.405 | 0.393 | 0.351 | 0.819 | 0.748 | 0.666 | 0.62 | 0.579 | 0.492 | 0.486 | 0.453
10 | NCI-H520 | 0.551 | 0.523 | 0.212 | 0.254 | 0.176 | 0.135 | 0.146 | 0.114 | 0.239 | 0.332 | 0.156 | 0.171 | 0.833 | 0.569 | 0.277 | 0.187 | 0.492 | 0.478 | 0.237 | 0.168
11 | LXF-289 | 0.506 | 0.542 | 0.542 | 0.548 | 0.189 | 0.212 | 0.104 | 0.0692 | 0.817 | 0.827 | 0.566 | 0.397 | 0.65 | 0.699 | 0.68 | 0.663 | 0.361 | 0.4 | 0.337 | 0.443
12 | NCI-H2087 | 0.531 | 0.361 | 0.404 | 0.317 | 0.672 | 0.822 | 0.632 | 0.691 | 0.503 | 0.446 | 0.32 | 0.237 | 0.246 | 0.211 | 0.176 | 0.133 | 0.212 | 0.344 | 0.189 | 0.151
13 | NCI-H596 | 0.738 | 0.956 | 0.651 | 0.481 | 0.569 | 0.537 | 0.325 | 0.207 | 0.719 | 0.729 | 0.353 | 0.296 | 0.728 | 0.756 | 0.713 | 0.603 | 0.963 | 1.02 | 0.756 | 0.403
14 | PC-14 | 0.493 | 0.663 | 0.584 | 0.525 | 0.274 | 0.291 | 0.17 | 0.095 | 1.02 | 1 | 0.557 | 0.266 | 0.557 | 0.876 | 0.516 | 0.704 | 0.245 | 0.254 | 0.302 | 0.322
15 | NCI-H1915 | 0.351 | 0.384 | 0.379 | 0.367 | 0.326 | 0.317 | 0.304 | 0.286 | 0.618 | 0.616 | 0.639 | 0.533 | 0.3 | 0.315 | 0.282 | 0.293 | 0.259 | 0.251 | 0.259 | 0.283

Source: the supplement of paper PMC10307832
